According to patent US6620419B1, “Cosmetic or dermopharmaceutical use of peptides for healing, hydrating and improving skin appearance during natural or induced ageing (heliodermia, pollution)” (Sederma, priority 1998, dated 2003):
Non-standard residues stand in square brackets, D forms with d. No end group written: not given here. *: point of attachment. Palmitoyl = CCCCCCCCCCCCCCCC(=O)*; Sar = CNCC(=O)O

Experiments:
Type in all cases: cell-based
[1] = system: explants of human skin; experiment: Increase of the synthesis of glycosaminoglycans in vitro: 3H-glucosamine incorporation in human skin explants; details: for increase of incorporation of 3H-glucosamine (synthesis of GAGs) relative to blank experiments: 72 hours, human skin explants
Method: The method chosen is a modification of that described by Augustin C. et al. (Skin Pharmacol. (1997); 10:63-70) in that we have used explants of human skin instead of human pulmonary fibroblasts, so as to render our results directly usable in cosmetology.
These explants, from abdominal or mammary plastic surgery, are incubated for 72 hours in the presence ^3H-proline, with peptide N-Palmitoyl-Sarcosine-Thr-Thr-Lys-Ser, to three final concentrations in the culture medium (2.10^−4%, 4.10^−4% and 8.10^−4%; namely, 2, 4 and 8 ppm). The explants are then washed, the derma and epiderma of each explant are separated, homogenized and lysed. The measurement of the incorporation of ^3H-proline is thus carried out in each lysat. Tests were done in triplicate.
In parallel, negative controls are carried out under the same conditions but in the absence of the peptide. Positive controls, themselves, are carried out by replacing the peptide tested by vitamin C.
The same protocol as in Example No. 3 is used, except that, on the one hand, the incubation is carried out in the presence of ^3H-glucosamine instead of ^3H-proline and vitamin A acid is used as reference product in place of vitamin C.

[2] = system: explants of human skin; experiment: Increase in synthesis of collagen in vitro: 3H-proline incorporation in human skin explants; details: for increase of incorporation of 3H-proline (synthesis of collagen) relative to blank tests: 72 hours, human skin explants
Method: The method chosen is a modification of that described by Augustin C. et al. (Skin Pharmacol. (1997); 10:63-70) in that we have used explants of human skin instead of human pulmonary fibroblasts, so as to render our results directly usable in cosmetology. These explants, from abdominal or mammary plastic surgery, are incubated for 72 hours in the presence ^3H-proline, with peptide N-Palmitoyl-[…], to three final concentrations in the culture medium (2.10^-4%, 4.10^-4% and 8.10^-4%; namely, 2, 4 and 8 ppm). The explants are then washed, the […] of each explant are separated, homogenized and lysed. The measurement of the incorporation of ^3H-proline is thus carried out in each lysat. Tests were done in triplicate. In parallel, negative controls are carried out under the same conditions but in the absence of the peptide. Positive controls, themselves, are carried out by replacing the peptide tested by vitamin C.

[3] = system: human fibroblasts; experiment: Cutaneous toning activity in vitro: stimulation of protein synthesis, colorimetry (Biuret reaction); details: 24 hours, per 1000 cells
Method: For 24 hours, human fibroblasts from the same cellular culture are placed in the presence of the standard culture medium, supplemented or not for controls, with given concentrations of peptide (2, 4 and 8 ppm).
The stimulation of the synthesis of proteins is evaluated by colorimetry (so-called Biuret reaction).
To standardize the results, the quantity of proteins measured is expressed for 1000 cells present in the test.

## KTTKSA
[1]; 2 ppm peptide
  increase of incorporation of 3H-glucosamine (synthesis of GAGs) relative to blank experiments: 24.5 (±3) %
[1]; 4 ppm peptide
  increase of incorporation of 3H-glucosamine (synthesis of GAGs) relative to blank experiments: 48.8 (±3) %
[1]; 8 ppm peptide
  increase of incorporation of 3H-glucosamine (synthesis of GAGs) relative to blank experiments: 67.9 (±5) %

## N-Palmitoyl-Sarcosine-Thr-Thr-Lys-Ser (Palmitoyl-[Sar]TTKS)
[2]; 2 ppm peptide
  increase of incorporation of 3H-proline (synthesis of collagen) relative to blank tests: 30.2 (±2) %
[2]; 4 ppm peptide
  increase of incorporation of 3H-proline (synthesis of collagen) relative to blank tests: 54.7 (±5) %
[2]; 8 ppm peptide
  increase of incorporation of 3H-proline (synthesis of collagen) relative to blank tests: 90.9 (±5) %

## CC1=C(/C=C/C(C)=C/C=C/C(C)=C/C(=O)O)C(C)(C)CCC1 [vitamin A acid, reference compound]
[1]; reference product at 100 nM, same conditions
  increase of synthesis of GAGs: 45.3 (±2) %

## O=C1O[C@H]([C@@H](O)CO)C(O)=C1O [ascorbic acid, reference compound]
[2]; reference product at 0.5mM, same conditions
  increase of collagen synthesis: 61.4 (±5) %

## N-Palmitoyl-Lys-Thr-Thr-Lys-Ser (Palmitoyl-KTTKS) [N-palmytoyl-Lys-Thr-Thr-Lys-Ser]
[3]; 2 ppm peptide
  increase in the concentration of proteins relative to control experiments: 14.7 (±1.0) %
[3]; 4 ppm peptide
  increase in the concentration of proteins relative to control experiments: 21.0(±2.4) %
[3]; 8 ppm peptide
  increase in the concentration of proteins relative to control experiments: 44.8(±1.0) %
